According to ChEMBL document CHEMBL1201862, “PubChem BioAssay data set” (2004):
Calls of active or inactive are those of the source.

Legend:
[1] = molecular target: T1, Dual specificity protein phosphatase 6 (Rattus norvegicus, UniProt Q64346); experiment: inhibition of rat DUSP6 enzyme activity – biochemical, in vitro, primary screen (AID 425)
T1 sequence (Q64346 whole entry): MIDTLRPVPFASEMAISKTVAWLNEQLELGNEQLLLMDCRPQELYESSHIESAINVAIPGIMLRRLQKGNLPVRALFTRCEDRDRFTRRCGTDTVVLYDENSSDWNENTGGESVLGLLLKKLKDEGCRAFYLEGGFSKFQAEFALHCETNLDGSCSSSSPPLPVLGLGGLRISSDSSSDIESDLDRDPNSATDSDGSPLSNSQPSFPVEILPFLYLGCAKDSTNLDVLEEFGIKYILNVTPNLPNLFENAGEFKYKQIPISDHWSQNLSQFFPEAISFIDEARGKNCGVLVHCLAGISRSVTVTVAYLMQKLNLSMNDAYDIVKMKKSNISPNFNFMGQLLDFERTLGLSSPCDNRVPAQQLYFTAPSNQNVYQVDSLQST

[2] = molecular target: T2, Dual specificity protein phosphatase 3 (Homo sapiens, UniProt P51452); experiment: VHR1 phosphatase inhibitors, primary screen, biochemical, absorbance, uHTS (AID 1654)
[3] = molecular target: T3, Tyrosine-protein phosphatase non-receptor type 11 (Homo sapiens, UniProt Q06124); experiment: PTPN11 enzyme inhibitors – biochemical, selectivity assay for STEP inhibitor project, dose response (AID 602367); type: functional; settings: read-out: IC50_Mean
T3 sequence (Q06124 whole entry): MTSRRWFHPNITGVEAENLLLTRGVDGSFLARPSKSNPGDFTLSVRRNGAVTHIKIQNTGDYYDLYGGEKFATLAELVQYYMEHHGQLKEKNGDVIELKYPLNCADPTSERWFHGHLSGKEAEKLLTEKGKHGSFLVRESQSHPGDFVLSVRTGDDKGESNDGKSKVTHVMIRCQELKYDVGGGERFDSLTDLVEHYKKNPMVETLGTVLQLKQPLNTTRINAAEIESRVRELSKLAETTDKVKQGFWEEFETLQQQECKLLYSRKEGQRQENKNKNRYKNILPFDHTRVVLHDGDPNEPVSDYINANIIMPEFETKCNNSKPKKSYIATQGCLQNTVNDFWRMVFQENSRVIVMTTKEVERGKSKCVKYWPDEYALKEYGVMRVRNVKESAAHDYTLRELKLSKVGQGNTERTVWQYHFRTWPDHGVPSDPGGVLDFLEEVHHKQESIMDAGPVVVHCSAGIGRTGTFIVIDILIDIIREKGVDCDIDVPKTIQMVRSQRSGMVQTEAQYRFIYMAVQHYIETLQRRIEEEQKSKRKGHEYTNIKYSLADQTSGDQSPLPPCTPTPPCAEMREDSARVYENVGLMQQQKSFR

[4] = molecular target: T2, Dual specificity protein phosphatase 3; experiment: VHR phosphatase inhibition, dose response, selectivity assay for STEP inhibitor project, biochemical (AID 602374); type: functional; settings: read-out: IC50_Mean
[5] = molecular target: T4, Tyrosine-protein phosphatase non-receptor type 5 (Homo sapiens, UniProt P54829); experiment: PTPN5 enzyme inhibition – biochemical, fluorescence intensity, uHTS hits, confirmation (AID 602372); type: functional; settings: read-out: IC50_Mean
T4 sequence (P54829 whole entry): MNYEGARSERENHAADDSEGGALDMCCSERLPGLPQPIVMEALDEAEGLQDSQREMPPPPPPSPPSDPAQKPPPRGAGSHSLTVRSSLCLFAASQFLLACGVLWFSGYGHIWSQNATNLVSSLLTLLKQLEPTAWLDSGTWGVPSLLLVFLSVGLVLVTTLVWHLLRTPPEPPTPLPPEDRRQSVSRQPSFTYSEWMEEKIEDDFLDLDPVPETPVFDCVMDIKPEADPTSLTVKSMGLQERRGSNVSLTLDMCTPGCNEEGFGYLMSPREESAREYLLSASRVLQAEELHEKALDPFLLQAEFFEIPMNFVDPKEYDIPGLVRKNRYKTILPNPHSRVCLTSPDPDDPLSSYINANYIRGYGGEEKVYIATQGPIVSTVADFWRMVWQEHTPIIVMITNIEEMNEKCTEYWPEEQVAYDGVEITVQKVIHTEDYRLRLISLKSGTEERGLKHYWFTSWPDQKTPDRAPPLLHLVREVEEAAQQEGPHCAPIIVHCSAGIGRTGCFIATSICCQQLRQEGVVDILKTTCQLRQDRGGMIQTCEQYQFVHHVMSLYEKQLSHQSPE

[6] = molecular target: T2, Dual specificity protein phosphatase 3; experiment: VHR1 phosphatase inhibitors, biochemical (AID 1878)
[7] = molecular target: DNA damage-inducible transcript 3 protein (Mus musculus, UniProt P35639); type: functional, Cricetulus griseus
X-box-binding protein 1 = molecular target: T5, X-box-binding protein 1 (Homo sapiens, UniProt P17861); type: functional, Cricetulus griseus;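 note: confirmatory dose-response counter-screen serving a CHOP assay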
T5 sequence (P17861 whole entry): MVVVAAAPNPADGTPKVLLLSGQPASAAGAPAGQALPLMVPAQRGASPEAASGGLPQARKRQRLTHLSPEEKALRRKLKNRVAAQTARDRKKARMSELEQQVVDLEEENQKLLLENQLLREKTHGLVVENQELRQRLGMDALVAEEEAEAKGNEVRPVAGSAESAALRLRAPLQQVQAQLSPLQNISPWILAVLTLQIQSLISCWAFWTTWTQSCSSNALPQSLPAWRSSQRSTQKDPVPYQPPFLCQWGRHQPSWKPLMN

Troponin, cardiac muscle = Troponin, cardiac muscle (Homo sapiens, UniProt P19429+P45379+P63316); experiment: Fluorescence-based biochemical high throughput dose response assay for activators of the calcium sensitivity of cardiac Regulated Thin Filaments (RTF). [Related pubchem assays (depositor defined):AID493008, AID493018, AID504382, AID504383]; type: protein-complex assay
[8] = molecular target: T6, Endoribonuclease toxin MazF (Escherichia coli K-12, UniProt P0AE70); experiment: substrate-only fluorescence increase artefacts – biochemical, single-stranded RNase substrate, counter-screen for MazEF activator project, dose response (AID 588502); type: functional
T6 sequence (P0AE70 whole entry): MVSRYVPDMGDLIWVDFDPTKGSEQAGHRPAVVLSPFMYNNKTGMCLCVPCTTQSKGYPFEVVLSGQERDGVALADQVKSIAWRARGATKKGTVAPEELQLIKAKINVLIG

[9] = molecular target: T7, Zinc finger protein mex-5 (Caenorhabditis elegans, UniProt Q9XUB2); experiment: potency of MEX-5 RNA-binding blockers – biochemical, C. elegans, fluorescence polarization, dose response (AID 1960)
T7 sequence (Q9XUB2 whole entry): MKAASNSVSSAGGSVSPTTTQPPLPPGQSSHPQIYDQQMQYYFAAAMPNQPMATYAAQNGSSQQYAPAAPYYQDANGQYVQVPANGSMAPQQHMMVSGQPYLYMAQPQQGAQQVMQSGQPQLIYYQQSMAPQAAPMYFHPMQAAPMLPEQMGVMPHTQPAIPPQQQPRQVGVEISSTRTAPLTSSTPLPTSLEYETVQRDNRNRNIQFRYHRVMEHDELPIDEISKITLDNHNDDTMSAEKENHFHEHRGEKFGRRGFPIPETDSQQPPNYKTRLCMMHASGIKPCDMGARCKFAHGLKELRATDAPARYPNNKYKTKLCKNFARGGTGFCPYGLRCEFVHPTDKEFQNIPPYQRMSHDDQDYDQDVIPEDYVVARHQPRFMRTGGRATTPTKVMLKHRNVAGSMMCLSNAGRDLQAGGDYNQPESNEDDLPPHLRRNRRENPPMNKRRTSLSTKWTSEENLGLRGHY

[10] = molecular target: Peroxisome proliferator-activated receptor gamma/Nuclear receptor coactivator 1 (Homo sapiens, UniProt P37231); experiment: TR-FRET dose response biochemical High Throughput Screening assay for agonists of the steroid receptor coactivator 1 (SRC-1) recruitment by the peroxisome proliferator-activated receptor gamma (PPAR gamma): non-selective agonists. [Related pubchem assays (depositor defined):AID1300, AID1808, AID504735, AID631]; type: protein assay
[11] = molecular target: Peroxisome proliferator-activated receptor gamma/Nuclear receptor coactivator 3 (Homo sapiens, UniProt P37231); experiment: TR-FRET dose response biochemical High Throughput Screening assay for agonists of the steroid receptor coactivator 3 (SRC-3) recruitment by the peroxisome proliferator-activated receptor gamma (PPAR gamma): non-selective agonists. [Related pubchem assays: 1301 (Confirmation screen.), 1048 (Primary screen.)]; type: functional
[12] = Luminescence Cell-Based Dose Confirmation HTS to Identify Inhibitors of Platelet Dense Granule Release. [Related pubchem assays: 1663 (Primary HTS), 1678 (Summary of Project)]; type: functional
[13] = molecular target: T8, RNA-binding protein pos-1 (Caenorhabditis elegans, UniProt G5EF15); experiment: disruptors of C. elegans POS-1 RNA interaction – biochemical, fluorescence polarization, dose response (AID 1964);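 note: purified POS-1 fused to maltose binding protein made in E. coli; potency of compounds blocking POS-1 binding to fluorescent RNA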
T8 sequence (G5EF15 whole entry): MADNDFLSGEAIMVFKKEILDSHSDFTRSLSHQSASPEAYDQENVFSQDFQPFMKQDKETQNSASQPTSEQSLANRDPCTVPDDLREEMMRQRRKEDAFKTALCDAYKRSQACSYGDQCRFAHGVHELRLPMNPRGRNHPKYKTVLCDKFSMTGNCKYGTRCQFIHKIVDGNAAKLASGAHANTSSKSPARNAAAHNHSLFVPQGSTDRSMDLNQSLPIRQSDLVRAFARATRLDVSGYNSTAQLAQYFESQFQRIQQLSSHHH

[14] = molecular target: Luciferin 4-monooxygenase (Photinus pyralis, UniProt P08659); experiment: inhibition of purified Photinus pyralis luciferase – biochemical, luminescence, dose response (AID 1891)
[15] = molecular target: Peroxisome proliferator-activated receptor gamma/Nuclear receptor coactivator 2 (Homo sapiens, UniProt P37231); experiment: TR-FRET dose response biochemical High Throughput Screening assay for agonists of the steroid receptor coactivator 2 (SRC-2) recruitment by the peroxisome proliferator-activated receptor gamma (PPAR gamma): non-selective agonists. [Related pubchem assays: 1297, 1032 ]; type: functional
[16] = molecular target: T6, Endoribonuclease toxin MazF; experiment: activation of MazEF endoribonuclease cleavage – biochemical, fluorescence, single-stranded RNA substrate, uHTS hits, dose response (AID 588481); type: functional
[17] = molecular target: Intestinal-type alkaline phosphatase (Mus musculus, UniProt P24822); experiment: PubChem AID 488785; type: functional
[18] = molecular target: T9, Alkaline phosphatase, tissue-nonspecific isozyme (Homo sapiens, UniProt P05186); experiment: TNAP enzyme inhibition by screening hits, dose response, selectivity assay for mouse IAP inhibitor project, biochemical, human TNAP, uHTS hits (AID 488906); type: functional
T9 sequence (P05186 whole entry): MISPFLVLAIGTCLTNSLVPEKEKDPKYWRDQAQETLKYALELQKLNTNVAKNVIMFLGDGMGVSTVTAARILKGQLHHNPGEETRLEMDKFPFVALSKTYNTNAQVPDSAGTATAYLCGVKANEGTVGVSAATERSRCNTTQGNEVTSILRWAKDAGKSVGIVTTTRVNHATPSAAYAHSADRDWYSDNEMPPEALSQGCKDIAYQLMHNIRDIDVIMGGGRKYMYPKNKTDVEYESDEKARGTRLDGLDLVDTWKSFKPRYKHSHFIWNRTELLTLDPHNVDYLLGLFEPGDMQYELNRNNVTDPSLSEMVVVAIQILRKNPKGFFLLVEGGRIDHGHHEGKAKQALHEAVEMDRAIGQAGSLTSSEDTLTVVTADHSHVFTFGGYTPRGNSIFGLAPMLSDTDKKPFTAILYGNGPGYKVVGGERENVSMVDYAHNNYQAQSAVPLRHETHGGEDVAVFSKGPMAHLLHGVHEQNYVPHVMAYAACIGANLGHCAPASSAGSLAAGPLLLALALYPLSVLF

[19] = molecular target: Intestinal-type alkaline phosphatase (Homo sapiens, UniProt P09923); experiment: inhibition of human intestinal alkaline phosphatase – biochemical, dose response (AID 488876); type: functional
Nonstructural protein 1 = Nonstructural protein 1 (Influenza A virus, UniProt Q194T2); type: functional, Influenza A virus (A/California/07/2009(H1N1))
[20] = molecular target: T10, Ubiquitin-conjugating enzyme E2 N (Homo sapiens, UniProt P61088); type: functional;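 note: Dose-response confirmation in a TR-FRET assay detecting UBC13-driven polyubiquitin chain formation, inhibition measured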
T10 sequence (P61088 whole entry): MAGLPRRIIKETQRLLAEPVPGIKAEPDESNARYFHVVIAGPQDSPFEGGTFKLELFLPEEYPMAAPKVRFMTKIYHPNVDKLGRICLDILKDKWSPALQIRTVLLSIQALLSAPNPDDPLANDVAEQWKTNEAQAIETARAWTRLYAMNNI

NC(=O)C1(N2CCCCC2)CCN(C(=S)Nc2ccc(S(N)(=O)=O)cc2)CC1
IC50 [1]: > 158 µM (not active) | IC50 [2]: 1.86 µM (active) | IC50 [3]: 2 µM (active) | IC50 [4]: 0.811 µM (active) | IC50 [5]: 11.6 µM (active) | IC50 [6]: 3.38 µM (active)

Cn1nc(-c2ccccc2)cc1NC(=O)Nc1ccc(C(C)(C)C)cc1
Absolute IC50 (CHOP) [7]: 10 µM | Absolute IC50 (XBP1) (X-box-binding protein 1): 10 µM

N#C/C(=C\c1c[nH]c2ccccc12)C(=O)Nc1ncc(Cc2ccc(Cl)cc2Cl)s1
EC50 (Troponin, cardiac muscle): > 71.5 µM (inactive)

Cc1ccc(NC(=O)CN(C)c2ccc(S(=O)(=O)N3CCCC3)cn2)cc1
EC50 (Troponin, cardiac muscle): > 71.5 µM (inactive)

Cc1nnc(N2C(=O)C(O)=C(C(=O)c3ccco3)C2c2ccc(C(C)(C)C)cc2)s1 (stereo not given)
EC50 [8]: 19.7 µM (active) | EC50 [9]: 7.86 µM (active) | EC50 [10]: > 2.94 µM (inactive) | EC50 [11]: > 79.4 µM (not active) | EC50 [12]: > 112 µM (not active) | EC50 [13]: 24.9 µM (active) | EC50 [14]: > 112 µM (not active) | EC50 [15]: 28.3 µM (not active) | EC50 [16]: > 99 µM (inactive)

COc1cccc(NC(=O)CN(C)S(=O)(=O)c2ccc3nc(O)oc3c2)c1
IC50 [17]: 4.03 µM (active) | IC50 [18]: > 100 µM (inactive) | IC50 [19]: > 100 µM (inactive)

Cc1cc(C)cc(NC(=S)NC2CC3CCCC(C2)N3Cc2cccs2)c1 (stereo not given)
IC50 (Nonstructural protein 1): > 100 µM (active) | IC50 [17]: 2.17 µM (active) | IC50 [18]: 12.9 µM (active) | IC50 [19]: 4.06 µM (active)

COc1ccc(-c2c3c(nc4sc(C(=O)Nc5ccccc5)c(N)c24)CCC3)cc1
EC50 [10]: > 79.4 µM (inactive) | EC50 [11]: > 79.4 µM (not active) | EC50 [15]: > 79.4 µM (not active) | IC50 [20]: > 20 µM (inactive)
